Activity calls are given as the source filed them. The rule behind the calls is not given here.
What was measured:
Calu-1 = experiment: Antiproliferative activity against human Calu1 cells after 48 hrs by propidium iodide staining based fluorometry; assay type: functional, cell-based; settings: Calu-1, 48 h
THP-1 (Homo sapiens) [1] = experiment: Antiinflammatory activity in human THP1 cells assessed as inhibition of IL-6 production at 10 uM relative to control; design: scale not given: the % may be the effect or the level left
PBMC = experiment: Antiinflammatory activity in human PBMC assessed as inhibition of LPS-induced TNF-alpha production incubated for 30 mins followed by LPS addition measured after 4.5 hrs by ELISA; assay type: functional, cell-based
THP-1 [2] = experiment: Antiinflammatory activity in PMA-differentiated human THP1 cells assessed as inhibition of LPS-induced IL-6 production at 10 uM after 24 hrs by ELISA relative to control; assay type: functional; settings: THP-1, 24 h
THP-1 [3] = experiment: Antiinflammatory activity in PMA-differentiated human THP1 cells assessed as inhibition of LPS-induced TNF-alpha production at 10 uM after 24 hrs by ELISA relative to control; assay type: functional; settings: THP-1, 24 h
[4] = tested on: MDA-MB-231 (Homo sapiens); experiment: Antiproliferative activity against human MDA-MB-231 cells at 10 uM relative to control
THP-1 [5] = experiment: Antiinflammatory activity in PMA-differentiated human THP1 cells assessed as inhibition of LPS-induced IL-6 production at 1 uM after 24 hrs by ELISA relative to control; assay type: functional; settings: THP-1, 24 h
THP-1 (Homo sapiens) [6] = experiment: Antiinflammatory activity in human THP1 cells assessed as inhibition of TNF-alpha production at 10 uM relative to control; design: scale not given: the % may be the effect or the level left
MIA PaCa-2 = experiment: Antiproliferative activity against human MIAPaCa2 cells at 10 uM relative to control; assay type: functional
ACHN (Homo sapiens) [7] = experiment: Antiproliferative activity against human ACHN cells at 1 uM relative to control
THP-1 [8] = experiment: Antiinflammatory activity in PMA-differentiated human THP1 cells assessed as inhibition of LPS-induced TNF-alpha production at 1 uM after 24 hrs by ELISA relative to control; assay type: functional; settings: THP-1, 24 h
THP-1 [9] = experiment: Antiinflammatory activity in PMA-differentiated human THP1 cells assessed as inhibition of LPS-induced IL-6 production after 24 hrs by ELISA; assay type: functional, cell-based; settings: THP-1, 24 h
HCT-116 = experiment: Antiproliferative activity against human HCT116 cells after 48 hrs by propidium iodide staining based fluorometry; assay type: functional, cell-based; settings: HCT-116, 48 h
[10] = tested on: MIA PaCa-2 (Homo sapiens); experiment: Antiproliferative activity against human MIA PaCa-2 cells at 1 uM relative to control
THP-1 [11] = experiment: Cytotoxicity against PMA-differentiated human THP1 cells assessed as reduction in cell viability after 4.5 hrs by MTS assay; assay type: cell-based; settings: THP-1, 4.5 h
[12] = tested on: MDA-MB-231 (Homo sapiens); experiment: Antiproliferative activity against human MDA-MB-231 cells at 1 uM relative to control; settings: mda-mb-231, 1 µM
ACHN = experiment: Antiproliferative activity against human ACHN cells after 48 hrs by propidium iodide staining based fluorometry; assay type: functional, cell-based
THP-1 [13] = experiment: Antiinflammatory activity in PMA-differentiated human THP1 cells assessed as inhibition of LPS-induced TNF-alpha production after 24 hrs by ELISA; assay type: functional, cell-based; settings: THP-1, 24 h
NCI-H460 = experiment: Antiproliferative activity against human H460 cells after 48 hrs by propidium iodide staining based fluorometry; assay type: functional, cell-based; settings: NCI-H460, 48 h
PANC-1 = experiment: Antiproliferative activity against human PANC1 cells after 48 hrs by propidium iodide staining based fluorometry; assay type: functional, cell-based; settings: PANC-1, 48 h
A-549 (Homo sapiens) = experiment: Antiproliferative activity against human A-549 cells at 10 uM relative to control
ACHN (Homo sapiens) [14] = experiment: Antiproliferative activity against human ACHN cells at 10 uM relative to control

Compound	IC50 (Calu-1) [µM]	Activity (THP-1 (Homo sapiens) [1]) [%]	inhibition at 10 µM (THP-1 [2]) [%]	inhibition at 10 µM (THP-1 [3]) [%]	Activity [4] [%]	inhibition at 1 µM (THP-1 [5]) [%]	Activity (THP-1 (Homo sapiens) [6]) [%]	Activity (MIA PaCa-2) [%]	Activity (ACHN (Homo sapiens) [7]) [%]	inhibition at 1 µM (THP-1 [8]) [%]	IC50 (THP-1 [9]) [µM]	IC50 (HCT-116) [µM]	Activity [10] [%]	IC50 (THP-1 [11]) [µM]	Activity [12] [%]	IC50 (ACHN) [µM]	IC50 (THP-1 [13]) [µM]	IC50 (NCI-H460) [µM]	IC50 (PANC-1) [µM]	other results
Cn1c(=O)c2c(c3ccccc31)OC(N)=C(C#N)C2c1ccc(O)cc1 (stereo unspecified)	1.1	0	13	0	77	0	0	83	55	0	4	0.6	55	30	23	1.8	10	1.2	1.9	inhibition (PBMC): inactive
COc1ccc(C2C(C#N)=C(N)Oc3c2c(=O)n(C)c2ccccc32)cc1OC (stereo unspecified)		43	23	0	24	0	0	50	38	0			40		20					
C[C@@H]1C[C@H]2[C@@H]3CCC4=CC(=O)C=C[C@]4(C)[C@@]3(F)[C@@H](O)C[C@]2(C)[C@@]1(O)C(=O)CO [DEXAMETHASONE]						58				40										
COc1ccc(C2C(C#N)=C(N)Oc3c2c(=O)n(C)c2ccccc32)cc1 (stereo unspecified)	> 20	77	73	0	81	0	0	84	78	0	1.7	> 20	80	30	70	> 20	12.8	> 20	> 20	inhibition (PBMC): inactive
Cn1c(=O)c2c(c3ccccc31)OC(N)=C(C#N)C2c1ccc([N+](=O)[O-])cc1 (stereo unspecified)		0	0	0		0	27	64	9	0			15		0					Activity (A-549 (Homo sapiens)): 77%; Activity (ACHN (Homo sapiens) [14]): 75%
Cn1c(=O)c2c(c3ccccc31)OC(N)=C(C#N)C2c1cccc(O)c1 (stereo unspecified)		11	0	0	12	0	4	29	0	5			17		0					
Cn1c(=O)c2c(c3ccccc31)OC(N)=C(C#N)C2c1ccc(Cl)cc1 (stereo unspecified)		75	75	0		0	42	63	45	0			21		0					Activity (ACHN (Homo sapiens) [14]): 69%
Cn1c(=O)c2c(c3ccccc31)OC(N)=C(C#N)C2c1cccc(Cl)c1 (stereo unspecified)	0.5	74	74	0		0	44	38	81	0	0.2	0.3	63	> 10	53	0.1	0.5	0.3	1	IC50 (PBMC): 1.8 µM

From ChEMBL document CHEMBL4251708, “Synthesis and Biological Screening of Pyrano[3,2-c]quinoline Analogues as Anti-inflammatory and Anticancer Agents” (ACS Med Chem Lett, 2018)
